Test results from US6673798B2, “PDGF receptor kinase inhibitory compounds, their preparation, purification and pharmaceutical compositions including same” (Yissum Research Development Company of the Hebrew …, priority 1999, dated 2004).
pIC50: −log10 of the molar value.

What was measured:
[1] = test system: fibroblast growth factor-dependent DNA synthesis; settings: relative to PDGF-dependent DNA synthesis; cited from earlier work
[2] = test system: porcine SMC; test: Inhibition of SMC proliferation and recovery (cell count); format: cell-based; settings: 10 μM; for mean reduction in SMC count by day 3: compared to DMSO treated control cells; for reversibility of the inhibitory effect on SMC proliferation: cultures washed on day 7, recovery counted day 13
Method: Smooth muscle cells (SMC) were obtained under aseptic conditions from porcine abdominal aortas. Each artery was cut open and the endothelial surface mechanically scraped. The vessels were then cut into 2 mm^2 fragments which were placed in culture dishes with Dulbecco's modified Eagle's medium (DMEM) supplemented with 15% (v/v) fetal calf serum (FCS), 100 u/ml penicillin, 100 μg/ml streptomycin, and […]. The tissue fragments were then placed in an incubator at 37° C. under 9% CO2 atmosphere until SMC outgrowth was detected (typically within 3-7 days). […] For experiments testing the effect of tyrphostins on growth inhibition and recovery (see below), SMC from passages 1-3 were replated in 15 mm wells pretreated with 3 μg/cm^2 fibronectin (Biological Industries, Kibbutz Beit Haemek, Israel) at 15,000 cells/well.
Inhibition of cell proliferation and recovery: Monolayer cell growth inhibition and recovery experiments were repeated 3 or 4 times. Each experiment was performed in triplicate. Approximately 15,000 cells (SMC or PAEC) in 1 ml of culture medium supplemented with either 15% FCS (SMC) or 10% FCS (PAEC) were seeded on day 0 in 15 mm-wells precoated with fibronectin (SMC) or uncoated (PAEC). Cultures were treated with 10 μM of the following tyrphostin compounds: AG2033, AC2034, AG2043 and AG2044 (for SMC) or AG2033 (for PAEC) dissolved in 0.1% DMSO on days 1 and 3. On day 7, cultures were washed and the cells allowed to recover. Typically cells were counted on days 3 and 6 for inhibition, and on day 13 for recovery. The medium supplemented with serum (DMEM for SMC and Ham's F12 for PAEC) was changed every other day throughout the experiment.
Cells were grown in the presence of the specified tyrphostins and were counted on days 3, 6 and 13 in culture. On day 7 the cultures were washed and the cells allowed to recover. […] The inhibitory effect of all three compounds was reversible, and the cells resumed normal growth response as soon as the treatment with the tyrphostins was withdrawn.

[3] = biological target: epidermal growth factor receptor (Homo sapiens, UniProt P00533); settings: cited from earlier work
[4] = test system: DNA synthesis stimulated by insulin, by epidermal growth factor, or by a combination of both; settings: cited from earlier work
[5] = test system: sis-transfected NIH 3T3 cells; settings: cited from earlier work
[6] = test system: src-transformed NIH 3T3 cells; settings: cited from earlier work
[7] = test system: porcine aortic endothelial cells; settings: cited from earlier work
[8] = biological target: stem cell factor receptor (c-Kit) (Homo sapiens, UniProt P10721); settings: cited from earlier work
[9] = biological target: vascular endothelial growth factor receptor KDR (Homo sapiens, UniProt P35968); settings: cited from earlier work
[10] = biological target: T1, p60c-src(F527) (Gallus gallus, UniProt P00523, Y527F); settings: immunoprecipitated from src-transformed NIH 3T3 cells; cited from earlier work
T1 construct: host or cells: src-transformed NIH 3T3 cells (immunoprecipitate)

[11] = biological target: human PDGF α-receptor (Homo sapiens, UniProt P16234); settings: cited from earlier work
[12] = biological target: T2, PDGF β-receptor (Homo sapiens, UniProt P09619); settings: cited from earlier work
[13] = biological target: T3, PDGFβR (Mus musculus, UniProt P05622); test: PDGF-induced PDGFβR autophosphorylation in intact Swiss 3T3 cells (FIG. 8); format: cell-based; settings: compared with AG2033 at 1 μM
T3 construct: A preparation of purified PDGFR from Swiss 3T3 cell membranes was used; endogenous in cells
Method: Kinase reactions, using an isolated PDGFβR preparation, in the presence of 0.03-3 μM tyrphostin, were conducted, utilizing [γ-^32P]ATP as probe. Densitometric evaluation, relative to control lacking the tyrphostin inhibitor (100%), results in the percent autokinase activity, presented in Table 8 and in the dose-response curves for the purified transoid isomers AG2033 (FIG. 6) and AG2043 (FIG. 7). Further comparison between the resulting autoradiogrms for each pair of geometrical isomers AG2033 and AG2034 (upper panel); AG2043 and AG2044 (lower panel), for their inhibitory activity towards PDGF-induced PDGFβR autophosphorylation (concentration range: 0.1-10 μM) in intact cells is presented in FIG. 8. […] Similar potency relation exists between the AG2043 and AG2044 isomers.

[14] = biological target: T2, PDGF β-receptor; test: PDGF-induced PDGFR autophosphorylation in intact PAEC cells; format: cell-based; design: expressed in transfected cells; host or cells: porcine aortic endothelial cells (PAEC), stably transfected; settings: intact PAEC cells expressing PDGFR, PDGF-BB stimulated; read-out: IC50 (50% inhibition of phosphorylation) PDGFR
Method: Effect of tyrphostins on PDGF-induced PDGFR autophosphorylation in intact PAEC cells: PAEC cells, transfected with either PDGFR or KDR, cultivated in Ham's F-12 medium supplemented with 10% fetal calf serum (FCS), were synchronized for 20 hours in a medium containing 0.01% BSA. […] After stimulation, the cells were solubilized in Nonidet P-40 (1%) containing lysis buffer.
The analysis of PDGF β-receptor phosphorylation was performed as follows. Cell lysates were subjected to immunoprecipitation using the PDGF β-receptor specific antiserum R3 [5]. The precipitates were subjected to polyacrylamide (7.5%) gel electrophoresis in presence of sodium dodecyl sulfate (SDS-PAGE) and were thereafter blotted onto a nitrocellulose membrane (Hybond C-EXTRA, Amersham). Phosphorylated proteins were detected by immunoblotting using the horseradish-peroxidase conjugated phosphotyrosine antibodies PY20 and 4G10 (Upstate Biotechnology), followed by application of secondary horseradish-peroxidase conjugated goat-anti-mouse antibody and chemoluminescence-based detection (ECL, Amersham) and autoradiography.
The data in Table 9 presents the differential potencies of the various compounds with respect to PDGFR and KDR, as was performed on intact PAEC cells expressing these receptors (see experimental methods section above).

[15] = test system: neointimal formation; settings: controlled local delivery, rat carotid balloon injury model; cited from earlier work

T2 sequence (P09619 33-1106): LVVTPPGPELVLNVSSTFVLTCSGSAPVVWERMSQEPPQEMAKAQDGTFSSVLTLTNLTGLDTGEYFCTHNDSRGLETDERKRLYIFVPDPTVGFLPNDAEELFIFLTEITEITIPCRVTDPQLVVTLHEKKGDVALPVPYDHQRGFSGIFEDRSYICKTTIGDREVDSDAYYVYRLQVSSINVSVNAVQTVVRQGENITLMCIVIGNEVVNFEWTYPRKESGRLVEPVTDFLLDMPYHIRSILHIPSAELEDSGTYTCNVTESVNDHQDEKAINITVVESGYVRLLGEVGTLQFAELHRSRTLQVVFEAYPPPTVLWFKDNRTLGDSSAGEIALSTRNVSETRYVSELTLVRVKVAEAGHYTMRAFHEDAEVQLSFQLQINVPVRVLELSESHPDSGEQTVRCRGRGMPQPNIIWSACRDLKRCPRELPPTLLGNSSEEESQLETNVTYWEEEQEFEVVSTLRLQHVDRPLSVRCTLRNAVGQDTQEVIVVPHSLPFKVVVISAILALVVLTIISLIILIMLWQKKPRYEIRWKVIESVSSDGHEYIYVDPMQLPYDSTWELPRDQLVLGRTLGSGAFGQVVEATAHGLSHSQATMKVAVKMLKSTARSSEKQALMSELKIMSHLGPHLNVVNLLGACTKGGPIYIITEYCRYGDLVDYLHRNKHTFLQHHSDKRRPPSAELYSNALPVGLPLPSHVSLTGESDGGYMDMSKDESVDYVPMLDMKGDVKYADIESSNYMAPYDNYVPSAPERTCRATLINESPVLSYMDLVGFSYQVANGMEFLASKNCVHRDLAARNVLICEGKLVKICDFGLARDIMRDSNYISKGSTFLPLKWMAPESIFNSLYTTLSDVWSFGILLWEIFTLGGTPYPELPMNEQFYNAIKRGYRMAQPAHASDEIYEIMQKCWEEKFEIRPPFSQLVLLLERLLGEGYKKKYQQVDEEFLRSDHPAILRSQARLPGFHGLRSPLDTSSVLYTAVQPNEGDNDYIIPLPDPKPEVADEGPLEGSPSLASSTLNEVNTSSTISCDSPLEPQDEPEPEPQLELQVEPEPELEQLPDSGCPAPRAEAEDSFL
Sequence of epidermal growth factor receptor (P00533 25-1210, species assumed): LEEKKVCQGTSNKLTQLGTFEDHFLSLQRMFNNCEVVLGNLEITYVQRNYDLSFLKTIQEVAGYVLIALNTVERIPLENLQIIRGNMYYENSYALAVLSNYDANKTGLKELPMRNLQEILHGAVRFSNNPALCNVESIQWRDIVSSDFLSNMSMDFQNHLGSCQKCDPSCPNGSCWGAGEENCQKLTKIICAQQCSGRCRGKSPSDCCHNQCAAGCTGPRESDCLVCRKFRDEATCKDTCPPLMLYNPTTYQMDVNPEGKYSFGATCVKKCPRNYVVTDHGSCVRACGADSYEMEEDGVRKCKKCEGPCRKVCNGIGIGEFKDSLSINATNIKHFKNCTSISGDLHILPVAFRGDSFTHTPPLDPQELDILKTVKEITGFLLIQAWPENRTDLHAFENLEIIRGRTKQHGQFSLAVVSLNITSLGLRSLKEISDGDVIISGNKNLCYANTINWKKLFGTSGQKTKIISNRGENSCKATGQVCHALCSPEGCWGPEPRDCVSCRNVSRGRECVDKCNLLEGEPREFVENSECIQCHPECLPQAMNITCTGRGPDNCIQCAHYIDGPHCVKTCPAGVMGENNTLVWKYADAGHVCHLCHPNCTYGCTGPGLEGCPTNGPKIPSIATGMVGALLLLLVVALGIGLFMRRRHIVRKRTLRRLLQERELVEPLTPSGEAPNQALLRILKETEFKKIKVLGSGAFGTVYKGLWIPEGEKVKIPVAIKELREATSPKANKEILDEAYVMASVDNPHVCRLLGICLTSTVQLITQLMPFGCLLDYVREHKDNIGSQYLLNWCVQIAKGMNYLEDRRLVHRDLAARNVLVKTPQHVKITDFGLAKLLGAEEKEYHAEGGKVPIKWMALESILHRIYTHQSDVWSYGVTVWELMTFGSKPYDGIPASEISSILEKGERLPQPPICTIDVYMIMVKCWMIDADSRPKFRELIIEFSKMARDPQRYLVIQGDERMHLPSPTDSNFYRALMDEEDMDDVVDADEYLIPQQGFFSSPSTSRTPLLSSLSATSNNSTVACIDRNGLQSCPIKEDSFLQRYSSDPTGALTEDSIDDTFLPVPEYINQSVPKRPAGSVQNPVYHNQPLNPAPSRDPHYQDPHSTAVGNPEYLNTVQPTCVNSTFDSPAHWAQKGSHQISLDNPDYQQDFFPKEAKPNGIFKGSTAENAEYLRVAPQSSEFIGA
Sequence of human PDGF α-receptor (P16234 24-1089): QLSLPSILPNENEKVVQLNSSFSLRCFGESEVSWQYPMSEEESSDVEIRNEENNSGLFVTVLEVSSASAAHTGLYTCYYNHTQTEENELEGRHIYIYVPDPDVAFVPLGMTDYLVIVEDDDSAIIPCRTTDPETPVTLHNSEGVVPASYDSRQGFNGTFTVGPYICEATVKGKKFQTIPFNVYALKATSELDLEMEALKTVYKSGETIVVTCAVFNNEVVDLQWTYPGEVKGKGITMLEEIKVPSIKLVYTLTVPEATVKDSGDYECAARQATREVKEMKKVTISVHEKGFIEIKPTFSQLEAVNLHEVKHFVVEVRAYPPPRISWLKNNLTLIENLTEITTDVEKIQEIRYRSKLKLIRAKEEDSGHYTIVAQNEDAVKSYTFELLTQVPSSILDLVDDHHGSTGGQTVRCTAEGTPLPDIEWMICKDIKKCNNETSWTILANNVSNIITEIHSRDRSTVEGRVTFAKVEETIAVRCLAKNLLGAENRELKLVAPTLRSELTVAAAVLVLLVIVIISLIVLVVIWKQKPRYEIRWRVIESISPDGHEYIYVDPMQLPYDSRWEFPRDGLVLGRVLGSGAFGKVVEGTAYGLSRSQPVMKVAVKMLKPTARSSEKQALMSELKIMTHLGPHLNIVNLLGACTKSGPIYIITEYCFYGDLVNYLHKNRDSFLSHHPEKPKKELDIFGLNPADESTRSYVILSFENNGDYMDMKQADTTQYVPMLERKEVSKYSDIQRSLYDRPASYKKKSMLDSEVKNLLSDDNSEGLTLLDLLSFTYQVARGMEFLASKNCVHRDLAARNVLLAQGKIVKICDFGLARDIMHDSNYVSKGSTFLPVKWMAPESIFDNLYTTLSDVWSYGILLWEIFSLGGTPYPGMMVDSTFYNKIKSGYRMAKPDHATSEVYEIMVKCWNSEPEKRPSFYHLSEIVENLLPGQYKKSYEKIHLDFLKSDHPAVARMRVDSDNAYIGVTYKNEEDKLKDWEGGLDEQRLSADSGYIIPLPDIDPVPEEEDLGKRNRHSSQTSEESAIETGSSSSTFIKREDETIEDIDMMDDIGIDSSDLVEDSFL
Sequence of vascular endothelial growth factor receptor KDR (P35968 20-1356): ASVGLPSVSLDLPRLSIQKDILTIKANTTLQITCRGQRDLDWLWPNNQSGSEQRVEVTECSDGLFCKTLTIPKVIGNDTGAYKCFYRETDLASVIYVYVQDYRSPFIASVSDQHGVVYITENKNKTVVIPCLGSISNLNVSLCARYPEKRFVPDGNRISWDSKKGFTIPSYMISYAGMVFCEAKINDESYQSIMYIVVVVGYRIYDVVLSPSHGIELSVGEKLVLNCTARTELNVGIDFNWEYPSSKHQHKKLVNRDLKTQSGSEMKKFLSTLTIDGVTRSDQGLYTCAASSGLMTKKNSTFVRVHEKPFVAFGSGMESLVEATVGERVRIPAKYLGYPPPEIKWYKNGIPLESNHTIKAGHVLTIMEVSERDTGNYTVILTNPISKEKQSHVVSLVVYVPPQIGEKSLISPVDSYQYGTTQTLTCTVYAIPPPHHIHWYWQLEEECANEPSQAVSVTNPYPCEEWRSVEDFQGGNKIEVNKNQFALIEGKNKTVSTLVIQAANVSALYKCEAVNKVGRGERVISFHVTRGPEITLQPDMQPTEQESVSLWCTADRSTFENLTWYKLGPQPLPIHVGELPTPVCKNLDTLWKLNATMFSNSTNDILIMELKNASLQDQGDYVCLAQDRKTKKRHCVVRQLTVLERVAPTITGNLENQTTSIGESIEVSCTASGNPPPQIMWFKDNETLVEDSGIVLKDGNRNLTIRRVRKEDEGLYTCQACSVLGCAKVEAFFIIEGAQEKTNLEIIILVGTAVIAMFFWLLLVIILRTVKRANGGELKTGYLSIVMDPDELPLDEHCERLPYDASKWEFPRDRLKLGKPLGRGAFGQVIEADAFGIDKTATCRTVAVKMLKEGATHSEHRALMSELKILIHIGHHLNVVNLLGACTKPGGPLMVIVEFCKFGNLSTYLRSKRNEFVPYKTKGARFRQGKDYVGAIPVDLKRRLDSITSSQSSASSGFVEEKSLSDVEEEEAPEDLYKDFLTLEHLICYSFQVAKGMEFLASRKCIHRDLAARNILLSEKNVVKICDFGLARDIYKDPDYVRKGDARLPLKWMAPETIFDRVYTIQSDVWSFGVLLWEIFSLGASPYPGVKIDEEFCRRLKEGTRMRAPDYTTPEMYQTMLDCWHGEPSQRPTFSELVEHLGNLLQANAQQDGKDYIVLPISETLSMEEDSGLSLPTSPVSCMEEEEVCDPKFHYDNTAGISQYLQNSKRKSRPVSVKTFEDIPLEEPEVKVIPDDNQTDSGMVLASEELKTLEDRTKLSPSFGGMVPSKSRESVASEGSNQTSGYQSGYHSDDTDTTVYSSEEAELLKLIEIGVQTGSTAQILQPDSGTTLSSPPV

pIC50 [14]	melting point [°C]	Structure (SMILES)	blocking effect on fibroblast growth factor-dependent DNA synthesis [1]	mean reduction in SMC count by day 3 [2] [%]	reversibility of the inhibitory effect on SMC proliferation [2]	effect on epidermal growth factor receptor autophosphorylation [3]	effect on DNA synthesis stimulated by insulin, EGF or a combination of both [4]	also measured
–	–	Cc1cc2ncc(-c3ccccc3)nc2cc1C [AG1295]	over an order of magnitude weaker blocking effect	61	completely reversible	no effect	weak effects	–
–	–	COc1cc2ncc(-c3ccccc3)nc2cc1OC [AG1296]	over an order of magnitude weaker blocking effect	–	–	no effect	weak effects	effect on transformed phenotype of sis-transfected NIH 3T3 cells [5]: reverses the transformed phenotype; effect on src-transformed NIH 3T3 cells [6]: no effect; effect on DNA synthesis induced by VEGF [7]: no effect; inhibition of signalling of stem cell factor receptor (c-Kit) [8]: potently inhibits; effect on autophosphorylation of KDR [9]: no effect; effect on activity of kinase p60c-src(F527) [10]: no effect; inhibition of signalling of human PDGF α-receptor [11]: potently inhibits; inhibition of signalling of human PDGF β-receptor [12]: potently inhibits
5.00	218	Cc1nc2cc3ncc(-c4ccccc4)nc3cc2n1C [AG2034, 1,2-dimethyl-7-phenyl imidazolo[5,4-g]quinoxaline]	–	–	–	–	–	concentration giving similar (marked) inhibition of PDGFβR autophosphorylation in intact cells [13]: 10 to 30 µM
–	–	CC(C)(C)c1cc(C=C(C#N)C#N)cc(C(C)(C)C)c1O [AG17]	–	–	–	–	–	inhibition of neointimal formation [15]: effectively inhibits
5.30	218	Cc1nc2cc3ncc(-c4cccs4)nc3cc2n1C [AG2044, 1,2-dimethyl-7-(2-thiophene) imidazolo[5,4-g]quinoxaline]	–	84	completely reversible	–	–	–
